One series deals with Melanocortin receptor 3 (Homo sapiens, UniProt P41968). In kind it is cell membranes, HEK293, Membrane. The settings on record: hek293.
Another series addresses Melanocortin receptor 5 (Homo sapiens, UniProt P33032). The format is cell membranes, HEK293, Membrane.
The next series deals with Acetylcholinesterase (Homo sapiens, UniProt P22303). Put plainly: DRUGMATRIX: Acetylcholinesterase enzyme inhibition (substrate: acetylthiocholine). The format is cell-based, HEK293. The settings on record: hek293; Not Active = under 50% inhibition at 10 µM.
A further series concerns the target T1, Adenosine receptor A1 (Homo sapiens, UniProt P30542).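 Note: radioligand binding assay at the adenosine A1 receptor, with DPCPX serving as the labelled ligand; in other assays of this panel Not Active means under 50% inhibition at 10 µM.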
T1 sequence (P30542 whole entry): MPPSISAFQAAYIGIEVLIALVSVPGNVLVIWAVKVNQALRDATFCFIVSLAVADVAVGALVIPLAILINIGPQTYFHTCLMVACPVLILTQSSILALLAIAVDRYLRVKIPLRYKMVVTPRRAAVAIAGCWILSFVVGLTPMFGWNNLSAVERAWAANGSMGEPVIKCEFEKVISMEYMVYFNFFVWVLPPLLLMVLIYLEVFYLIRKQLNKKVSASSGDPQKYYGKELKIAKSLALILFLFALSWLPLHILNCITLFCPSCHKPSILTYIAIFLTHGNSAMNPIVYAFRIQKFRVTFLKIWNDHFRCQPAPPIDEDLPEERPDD
In kind it is cell membranes, CHO, Membrane. As to conditions: cho.

The target of another series is T2, Cytochrome P450 2A6 (Homo sapiens, UniProt P11509). Note: in other assays of this panel Not Active means under 50% inhibition at 10 µM.
T2 sequence (P11509 whole entry): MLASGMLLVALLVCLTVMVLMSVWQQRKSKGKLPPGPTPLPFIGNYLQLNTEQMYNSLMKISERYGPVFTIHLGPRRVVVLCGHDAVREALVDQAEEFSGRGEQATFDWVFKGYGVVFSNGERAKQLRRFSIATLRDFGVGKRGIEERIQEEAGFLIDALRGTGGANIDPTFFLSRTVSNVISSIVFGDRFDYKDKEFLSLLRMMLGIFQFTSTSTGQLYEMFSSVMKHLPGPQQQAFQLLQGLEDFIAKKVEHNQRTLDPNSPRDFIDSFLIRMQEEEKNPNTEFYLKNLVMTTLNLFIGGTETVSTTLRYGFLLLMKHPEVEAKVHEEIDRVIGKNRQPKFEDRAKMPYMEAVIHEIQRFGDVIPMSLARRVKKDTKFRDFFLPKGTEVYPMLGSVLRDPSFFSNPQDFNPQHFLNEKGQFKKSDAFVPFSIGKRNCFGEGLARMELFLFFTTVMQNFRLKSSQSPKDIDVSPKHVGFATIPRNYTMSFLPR
The settings on record: bti-tn-5b1-4.

Another series concerns the target Cytochrome P450 2C9 (Homo sapiens, UniProt P11712). As to conditions: bti-tn-5b1-4. Note: in other assays of this panel Not Active means under 50% inhibition at 10 µM.
Throughout, for Ki: in other assays of this panel Not Active means under 50% inhibition at 10 µM.

Chain of Cytochrome P450 2C9 (P11712 whole entry): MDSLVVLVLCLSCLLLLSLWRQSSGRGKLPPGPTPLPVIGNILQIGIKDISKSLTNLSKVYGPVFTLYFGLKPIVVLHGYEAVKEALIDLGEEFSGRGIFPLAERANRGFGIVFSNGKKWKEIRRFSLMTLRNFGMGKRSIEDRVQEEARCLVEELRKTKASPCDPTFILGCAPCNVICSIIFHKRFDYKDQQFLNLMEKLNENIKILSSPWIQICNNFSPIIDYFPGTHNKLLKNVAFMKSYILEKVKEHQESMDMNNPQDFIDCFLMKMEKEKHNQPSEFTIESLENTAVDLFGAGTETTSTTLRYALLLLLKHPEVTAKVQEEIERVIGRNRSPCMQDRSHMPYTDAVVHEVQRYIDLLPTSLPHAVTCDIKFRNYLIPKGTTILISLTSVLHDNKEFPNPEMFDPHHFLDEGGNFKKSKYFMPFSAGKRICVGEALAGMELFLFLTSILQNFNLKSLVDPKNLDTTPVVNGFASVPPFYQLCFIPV
Chain of Acetylcholinesterase (P22303 whole entry): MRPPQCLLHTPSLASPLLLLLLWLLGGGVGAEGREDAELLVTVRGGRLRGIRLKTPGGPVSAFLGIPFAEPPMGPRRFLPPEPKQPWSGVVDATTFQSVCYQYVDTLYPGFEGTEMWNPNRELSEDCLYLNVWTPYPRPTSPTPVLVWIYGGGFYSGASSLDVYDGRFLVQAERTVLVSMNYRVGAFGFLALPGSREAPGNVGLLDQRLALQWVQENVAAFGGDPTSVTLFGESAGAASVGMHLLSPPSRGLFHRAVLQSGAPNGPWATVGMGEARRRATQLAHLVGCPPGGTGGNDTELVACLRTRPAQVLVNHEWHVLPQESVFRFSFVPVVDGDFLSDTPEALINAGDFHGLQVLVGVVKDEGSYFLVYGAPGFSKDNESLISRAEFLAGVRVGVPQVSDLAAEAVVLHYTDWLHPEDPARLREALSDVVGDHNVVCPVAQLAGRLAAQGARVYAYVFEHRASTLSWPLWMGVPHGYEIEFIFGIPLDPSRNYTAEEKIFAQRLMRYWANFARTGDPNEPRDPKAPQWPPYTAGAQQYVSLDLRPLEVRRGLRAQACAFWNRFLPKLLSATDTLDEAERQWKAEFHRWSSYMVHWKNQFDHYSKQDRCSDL
Chain of Melanocortin receptor 3 (P41968 whole entry): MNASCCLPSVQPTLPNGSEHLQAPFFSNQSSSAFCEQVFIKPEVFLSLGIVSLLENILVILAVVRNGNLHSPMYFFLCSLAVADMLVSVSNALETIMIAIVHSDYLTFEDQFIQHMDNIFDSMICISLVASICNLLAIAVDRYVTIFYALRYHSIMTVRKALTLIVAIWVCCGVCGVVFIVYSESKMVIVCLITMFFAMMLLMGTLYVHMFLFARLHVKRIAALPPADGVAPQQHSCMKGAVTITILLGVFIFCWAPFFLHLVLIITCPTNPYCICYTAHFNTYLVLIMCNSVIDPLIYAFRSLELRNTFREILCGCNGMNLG
Chain of Melanocortin receptor 5 (P33032 whole entry): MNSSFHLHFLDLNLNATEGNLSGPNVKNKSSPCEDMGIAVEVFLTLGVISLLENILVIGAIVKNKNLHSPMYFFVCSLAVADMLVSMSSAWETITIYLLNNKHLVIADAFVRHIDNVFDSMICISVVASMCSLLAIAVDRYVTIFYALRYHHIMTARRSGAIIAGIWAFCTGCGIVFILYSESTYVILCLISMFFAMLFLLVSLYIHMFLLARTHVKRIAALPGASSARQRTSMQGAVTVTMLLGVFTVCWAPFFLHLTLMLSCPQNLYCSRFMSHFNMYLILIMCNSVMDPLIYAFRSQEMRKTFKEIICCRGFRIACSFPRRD

Broadly, the IC50 is the concentration that gives 50% inhibition. The term Ki denotes the equilibrium dissociation constant of an inhibitor or competing ligand from its target. As to `CC[C@H](C)[C@H]1O[C@]2(C=C[C@@H]1C)C[C@@H]1C[C@@H](C/C=C(\C)[C@@H](O[C@H]3C[C@H](OC)[C@@H](O[C@H]4C[C@H](OC)[C@@H](O)[C@H](C)O4)[C@H](C)O3)[C@@H](C)/C=C/C=C3\CO[C@@H]4[C@H](O)C(C)=C[C@@H](C(=O)O1)[C@]34O)O2.CO[C@H]1C[C@H](O[C@H]2[C@H](C)O[C@@H](O[C@@H]3/C(C)=C/C[C@@H]4C[C@@H](C[C@]5(C=C[C@H](C)[C@@H](C(C)C)O5)O4)OC(=O)[C@@H]4C=C(C)[C@@H](O)[C@H]5OC/C(=C\C=C\[C@@H]3C)[C@]54O)C[C@@H]2OC)O[C@@H](C)[C@@H]1O` [ABAMECTIN], the 50% inhibitory concentration (IC50) result at Melanocortin receptor 3, on Melanocortin receptor 5 (hek293), against Acetylcholinesterase, at Adenosine receptor A1, against Cytochrome P450 2A6 and on Cytochrome P450 2C9 was “Not Active” in each case. Also, the Ki entry on Cytochrome P450 2A6 and at Cytochrome P450 2C9 was “Not Active” throughout.

In the case of `Cc1nnc2n1-c1ccc(Cl)cc1C(c1ccccc1)=NC2` [ALPRAZOLAM], the IC50 result against Melanocortin receptor 3, at Melanocortin receptor 5 (hek293), at Acetylcholinesterase, against Adenosine receptor A1, at Cytochrome P450 2A6 and against Cytochrome P450 2C9 was “Not Active” throughout. In addition, the Ki entry at Cytochrome P450 2A6 and at Cytochrome P450 2C9 was “Not Active” each time.

Take `CCC1(CCC(C)C)C(=O)NC(=O)NC1=O` [AMOBARBITAL]: the IC50 entry against Melanocortin receptor 3, against Melanocortin receptor 5 (hek293), against Acetylcholinesterase, at Adenosine receptor A1, against Cytochrome P450 2A6 and against Cytochrome P450 2C9 was “Not Active” in each case. The Ki result at Cytochrome P450 2A6 and at Cytochrome P450 2C9 was “Not Active” in each case.

As for `COc1ccc(C2C(=O)c3ccccc3C2=O)cc1` [ANISINDIONE], the IC50 entry against Melanocortin receptor 3, at Melanocortin receptor 5 (hek293), against Acetylcholinesterase, at Adenosine receptor A1, against Cytochrome P450 2A6 and against Cytochrome P450 2C9 was “Not Active” in each case. In addition, the Ki result at Cytochrome P450 2A6 and at Cytochrome P450 2C9 was “Not Active” throughout.

Regarding `O=C1O[C@H]([C@@H](O)CO)C(O)=C1O` [ASCORBIC ACID], the IC50 result on Melanocortin receptor 3, on Melanocortin receptor 5 (hek293), against Acetylcholinesterase, on Adenosine receptor A1, at Cytochrome P450 2A6 and on Cytochrome P450 2C9 was “Not Active” throughout. The Ki result at Cytochrome P450 2A6 and on Cytochrome P450 2C9 was “Not Active” each time.

With `CC(C(=O)O)c1ccc2oc(-c3ccc(Cl)cc3)nc2c1` (stereo not given) [BENOXAPROFEN], the IC50 entry against Melanocortin receptor 3, at Melanocortin receptor 5 (hek293), against Acetylcholinesterase, on Adenosine receptor A1, against Cytochrome P450 2A6 and on Cytochrome P450 2C9 was “Not Active” in each case. In addition, the Ki result on Cytochrome P450 2A6 and at Cytochrome P450 2C9 was “Not Active” each time.

Regarding `O=C(O)CCNC(=O)c1ccccc1` [BETAMIPRON], the IC50 result against Melanocortin receptor 3, at Melanocortin receptor 5 (hek293), against Acetylcholinesterase, on Adenosine receptor A1, on Cytochrome P450 2A6 and against Cytochrome P450 2C9 was “Not Active” throughout. Further, the Ki entry at Cytochrome P450 2A6 and on Cytochrome P450 2C9 was “Not Active” throughout.

Consider `Cc1cc2c(OCC(CNC(C)(C)C)OC(=O)c3ccccc3)cccc2[nH]1` (stereo not given) [BOPINDOLOL], for which the IC50 result on Melanocortin receptor 3, on Melanocortin receptor 5 (hek293), at Acetylcholinesterase, against Adenosine receptor A1, at Cytochrome P450 2A6 and on Cytochrome P450 2C9 was “Not Active” in each case. For the same compound, the Ki result on Cytochrome P450 2A6 and at Cytochrome P450 2C9 was “Not Active” throughout.

On to `Brc1c(NC2=NCCN2)ccc2nccnc12` [BRIMONIDINE], for which the IC50 entry against Melanocortin receptor 3, against Melanocortin receptor 5 (hek293), against Acetylcholinesterase, against Adenosine receptor A1, at Cytochrome P450 2A6 and at Cytochrome P450 2C9 was “Not Active” each time. Moreover, the Ki entry at Cytochrome P450 2A6 and at Cytochrome P450 2C9 was “Not Active” each time.

In the case of `CN(C)[C@@H]1C(O)=C(C(N)=O)C(=O)[C@@]2(O)C(O)=C3C(=O)c4c(O)ccc(Cl)c4[C@@](C)(O)[C@H]3C[C@@H]12` [CHLORTETRACYCLINE], the IC50 result against Melanocortin receptor 3, on Melanocortin receptor 5 (hek293), at Acetylcholinesterase, on Adenosine receptor A1, against Cytochrome P450 2A6 and against Cytochrome P450 2C9 was “Not Active” each time. Moreover, the Ki entry on Cytochrome P450 2A6 and at Cytochrome P450 2C9 was “Not Active” throughout.

In the case of `CN/C(=N\CCSCc1nc[nH]c1C)NC#N` [CIMETIDINE], the IC50 result on Melanocortin receptor 3, at Melanocortin receptor 5 (hek293), on Acetylcholinesterase, against Adenosine receptor A1, at Cytochrome P450 2A6 and against Cytochrome P450 2C9 was “Not Active” in each case. Also, the Ki entry on Cytochrome P450 2A6 and at Cytochrome P450 2C9 was “Not Active” throughout.

On to `COc1cc(N)c(Cl)cc1C(=O)NC1CCN(CCCOc2ccc(F)cc2)CC1OC` (stereo not given) [CISAPRIDE], for which the IC50 entry against Melanocortin receptor 3, at Melanocortin receptor 5 (hek293), against Acetylcholinesterase, against Adenosine receptor A1, on Cytochrome P450 2A6 and against Cytochrome P450 2C9 was “Not Active” in each case. Also, the inhibitory constant (Ki) entry at Cytochrome P450 2A6 and on Cytochrome P450 2C9 was “Not Active” each time.

`CCC(=O)O[C@]1(C(=O)CCl)[C@@H](C)C[C@H]2[C@@H]3CCC4=CC(=O)C=C[C@]4(C)[C@@]3(F)[C@@H](O)C[C@@]21C` [CLOBETASOL PROPIONATE]: the IC50 result against Melanocortin receptor 3, against Melanocortin receptor 5 (hek293), against Acetylcholinesterase, against Adenosine receptor A1, on Cytochrome P450 2A6 and on Cytochrome P450 2C9 was “Not Active” throughout. Also, the Ki entry on Cytochrome P450 2A6 and at Cytochrome P450 2C9 was “Not Active” each time.

With `O=C1CN=C(c2ccccc2Cl)c2cc([N+](=O)[O-])ccc2N1` [CLONAZEPAM], the IC50 result on Melanocortin receptor 3, against Melanocortin receptor 5 (hek293), against Acetylcholinesterase, at Adenosine receptor A1, on Cytochrome P450 2A6 and at Cytochrome P450 2C9 was “Not Active” in each case. Besides, the Ki entry at Cytochrome P450 2A6 and on Cytochrome P450 2C9 was “Not Active” each time.

Consider `Nc1ccn([C@@H]2O[C@H](CO)[C@@H](O)[C@@H]2O)c(=O)n1` [CYTARABINE], for which the IC50 result on Melanocortin receptor 3, at Melanocortin receptor 5 (hek293), at Acetylcholinesterase, on Adenosine receptor A1, on Cytochrome P450 2A6 and against Cytochrome P450 2C9 was “Not Active” each time. The Ki result on Cytochrome P450 2A6 and on Cytochrome P450 2C9 was “Not Active” throughout.

As to `C[C@@H]1C[C@H]2[C@@H]3CCC4=CC(=O)C=C[C@]4(C)[C@@]3(F)[C@@H](O)C[C@]2(C)[C@H]1C(=O)CO` [DESOXIMETASONE], the IC50 entry against Melanocortin receptor 3, against Melanocortin receptor 5 (hek293), against Acetylcholinesterase, against Adenosine receptor A1, at Cytochrome P450 2A6 and against Cytochrome P450 2C9 was “Not Active” throughout. In addition, the Ki entry on Cytochrome P450 2A6 and on Cytochrome P450 2C9 was “Not Active” each time.

In the case of `CN(C)CC[C@@H](c1ccc(Cl)cc1)c1ccccn1` [DEXCHLORPHENIRAMINE], the IC50 result on Melanocortin receptor 3, at Melanocortin receptor 5 (hek293), on Acetylcholinesterase, on Adenosine receptor A1, on Cytochrome P450 2A6 and against Cytochrome P450 2C9 was “Not Active” throughout. Further, the Ki result on Cytochrome P450 2A6 and at Cytochrome P450 2C9 was “Not Active” in each case.

Regarding `C[C@@H]1CC[C@@]2(OC1)O[C@H]1[C@@H](O)[C@H]3[C@@H]4CC[C@H]5C[C@@H](O[C@@H]6O[C@H](CO)[C@H](O[C@@H]7O[C@H](CO)C(O)[C@H](O[C@@H]8OC[C@@H](O)[C@H](O)[C@H]8O)[C@H]7O[C@@H]7O[C@H](CO)[C@H](O)[C@H](O[C@@H]8O[C@H](CO)[C@@H](O)[C@H](O)[C@H]8O)[C@H]7O)[C@H](O)[C@H]6O)[C@H](O)C[C@]5(C)[C@H]4CC[C@]3(C)[C@H]1[C@@H]2C` (stereo not given in full) [DIGITONIN], the IC50 entry against Melanocortin receptor 3 was “Not Active”; at Melanocortin receptor 5 (read-out: IC50), 3.88 µM; against Acetylcholinesterase, “Not Active”; against Adenosine receptor A1 it was “Not Active”; against Cytochrome P450 2A6 it was “Not Active”; against Cytochrome P450 2C9, “Not Active”. Further, the Ki on Melanocortin receptor 5 (read-out: Ki) was 3.64 µM; on Cytochrome P450 2A6 it was “Not Active”; at Cytochrome P450 2C9 it was “Not Active”.
